# Biological target: T1, Lysyl oxidase (Bos taurus, UniProt P33072)
# T1 construct: The supernatant with lysyl oxidase activity is saved; from tissue; host or cells: bovine aorta (4 M urea extract)
# T1 sequence (P33072 170-418): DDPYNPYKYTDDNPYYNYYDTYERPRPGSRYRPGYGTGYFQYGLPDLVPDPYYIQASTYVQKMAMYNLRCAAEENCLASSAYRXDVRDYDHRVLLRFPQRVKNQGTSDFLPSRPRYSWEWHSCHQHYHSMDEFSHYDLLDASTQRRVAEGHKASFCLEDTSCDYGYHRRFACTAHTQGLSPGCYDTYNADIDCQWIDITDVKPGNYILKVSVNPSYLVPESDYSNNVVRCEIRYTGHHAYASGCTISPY
# Assay: Lysyl oxidase inhibition assay (fluorometric, cadaverine substrate, homovanillic acid/horseradish peroxidase)
# Assay type: biochemical
# Conditions: lysyl oxidase preparation from bovine aorta, 10 minutes at 55°C, borate buffer pH = 8.2, read-out: IC₅₀
# Procedure: Lysyl oxidase preparation is obtained from bovine aorta by the procedures modified from M. A. Williams and H. M. Kagan, Anal. Biochem. 149, 430 - 437 (1985) and H. M. Kagan and K. A. Sullivan, Methods in Enzyml. 82, 637 - 650 (1982). The aorta is obtained fresh on the day of the enzyme preparation and is maintained at 4°C for the duration of its use in the experiments. The aorta is ground fine and is homogenized for 90 seconds in buffer (2.5 ml of a buffer consisting of 16 mM potassium phosphate and 1 mM phenylmethylsulfonyl fluoride/g of tissue) with 0.15 M NaCl added, then the mixture is centrifuged (20 minutes at 11,000 x g). The homogenization followed by centrifugation procedure is repeated with buffer plus 0.15 M NaCl, buffer alone, and buffer plus 1 M urea. After homogenization in 1 M urea, the mixture is stirred for 1 hour prior to centrifugation. The resulting pellet is homogenized in buffer plus 4 M urea, stirred for 18 hours, and centrifuged. The supernatant with lysyl oxidase activity is saved. The tissue is homogenized in buffer plus 4 M urea, stirred overnight, and centrifuged twice more. The supernatants with lysyl oxidase activity are saved.
# The assay is adopted from that of P. C. Trackman, et al., Anal. Biochem. 113, 336 - 342 (1981). Each assay consists of two tubes, one that contains 0.2 mM β-aminopropionitrile, BAPN, from the start and one to which BAPN is added to quench the reaction. Lysyl oxidase preparation (0.150 ml), urea (0.300 ml, 4 M), buffer (0.930 ml, 200mM borate at pH = 8.2), homovanillic acid (0.020 ml of 50 mM solution), and horseradish peroxidase (0.010 ml of Sigma Type II at 5 mg/ml protein) are incubated for 2 minutes at 55°C in a test tube. Cadaverine (0.100 ml of 150 mM) and test compound, if any, is added and the incubation continued at 55°C for an additional 10 minutes. The test tubes containing this mixture are then cooled in a ice bath after adding BAPN to any tubes not containing it. The difference in fluorescence (excitation 315 nm and emission 425 nm) between corresponding tubes that received BAPN at 0 minutes and at 10 minutes is a measure of enzyme activity. A standard curve to determine the amount of cadaverine converted by lysyl oxidase is prepared as follows. Assay mixtures containing BAPN are made up as described and known amounts of hydrogen peroxide are added simultaneously with cadaverine and the fluorescence changes after 10 minutes reaction are determined.
# Using this method the lysyl oxidase inhibiting activity expressed as IC₅₀ (inhibitory concentration), that is the concentration of test compound required to inhibit the enzyme activity by 50 per cent, was determined for various compounds of this invention.
row,IC50,Structure (SMILES)
1,100 nM,"COc1ccc(/C(=C\F)CN)cc1OC [(E)-2-(3,4-Dimethoxyphenyl)-3-fluoroallylamine]"
2,0.1 nM,"COc1ccc(CCC/C(=C\F)CN)cc1OC [(E)-2-(3,4-Dimethoxyphenylpropyl)-3-fluoroallylamine]"
3,0.1 nM,NC/C(=C/F)CCc1ccc(F)cc1 [(E)-2-(4-Fluorophenethyl)-3-fluoroallylamine]
4,0.1 nM,NC/C(=C\F)CSc1ccccc1 [(E)-2-(Thiophenoxymethyl)-3-fluoroallylamine]
5,100 nM,CC(C)C/C(=C\Cl)CN [(E)-2-Isobutyl-3-chloroallylamine]
6,10 nM,CC(C)C/C(=C\F)CN [(E)-2-Isobutyl-3-fluoroallylamine]
7,10 nM,NC/C(=C/Cl)CCc1ccccc1 [(E)-2-Phenethyl-3-chloroallylamine]
8,100 nM,NC/C(=C/Cl)c1ccccc1 [(E)-2-Phenyl-3-chloroallylamine]
9,1 nM,NC/C(=C/F)c1ccccc1 [(E)-2-Phenyl-3-fluoroallylamine]
10,100 nM,CCCCCCCCCCC/C(=C\F)CN [(E)-2-Undecyl-3-fluoroallylamine]
11,1000 nM,"CCNC/C(=C/F)c1ccc(OC)c(OC)c1 [(E)-N-Ethyl-2-(3,4-dimethoxyphenyl)-3-fluoroallylamine]"
12,1 nM,NC/C(=C/F)c1cccs1 [(Z)-2-(2-Thienyl)-3-fluoroallylamine]
13,1 nM,"NC/C(=C/F)COc1ccc(Cl)c(Cl)c1 [(Z)-2-(3,4-Dichlorophenoxymethyl)-3-fluoroallylamine]"

# From patent publication EP0330218B1, “Inhibitors of lysyl oxidase” (MERRELL DOW PHARMACEUTICALS INC., priority 1988, dated 1989)
